Data on one molecule can be found in patent US20090042726A1, “Novel Herbicides” (SYNGENTA LIMITED, priority 2005, published 2009).

The subject of series [1] is Monocotyledonous and dicotyledonous test plants. Briefly: Herbicidal action, application pre-emergence (Example B1). In kind it is in vivo. Set-up: key: 10=total damage to plant; 0=no damage to plant. The settings on record: 1000 g/ha, evaluated after 9 or 13 days. Put shortly:
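Seeds sown in sterilised standard soil were sprayed one day after sowing (pre-emergence) with 1000 mg/l active ingredient in aqueous solution containing 10% DMSO. Plants were kept in a climatic chamber at 24/19° C. day/night after application. Damage was scored 0 (none) to 10 (total) after 9 or 13 days.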

Molecule `Cc1nc(C(Cl)S(=O)(=O)C2=NOC(C)(C)C2F)n(C)n1` (racemic) [8.05, 3-[chloro-(1,3-dimethyl-1H-[1,2,4]triazol-5-yl)-methane-sulfonyl]-4-fluoro-5,5-dimethyl-4,5-dihydro-isoxazole] showed a melting point of 140 to 141 °C. In addition, the “AGSTE herbicidal action (damage score 0-10)” value in series [1] (Agrostis-tenius) worked out at 10. The “AMARE herbicidal action (damage score 0-10)” value in series [1] (Amaranthus retroflexus) is 10. Moreover, the “DIGSA herbicidal action (damage score 0-10)” value in series [1] (Digitaria sanguinalis) is listed as 9. The “POATR herbicidal action (damage score 0-10)” value in series [1] (Poa trivialis) is recorded as 8.
